The test system of test [1] is upregulation of CD11b in GROα stimulated neutrophils in human whole blood. Kind of test: Human whole blood assay (CD11b upregulation). The format is cell-based. Particulars: Neutrophil, inhibition of CD11b upregulation, GROα 33 nM final, flow cytometry, read-out: pIC50 (human whole blood assay) (converted). The procedure: The whole blood assay tested the compounds' ability to inhibit the upregulation of CD11b in GROα stimulated neutrophils in human whole blood.
Blood was withdrawn by venipuncture from consented adults and poured into a Sterilin tube containing an anti-coagulant Heparin (10 uL/mL of blood). All the test compounds were dissolved in DMSO to 4 mM and serial diluted across the plate, 1 in 3 to provide 10 point dose response curves. The compounds were then diluted 100 fold in -PBS [Phosphate buffered saline (without Calcium Chloride and Magnesium Chloride)] after which, 1 uL was dispensed in 96 U bottom Costar plates using an FX.
10 uL of blood was transferred to the compound plate using a multi-channel pipette, gently tapped and incubated for 15 minutes, at 37° C. After 15 minutes, the stimulant GROα was diluted to 100 nM in 0.1% BSA (Albumin Bovine Serum)-PBS and 5 uL is dispensed across the whole plate for a final concentration of 33 nM. The plate was gently tapped and incubated further for 15 minutes at 37° C. The plate was placed on ice for 1 minute before addition of 10 uL of an antibody cocktail consisting of CD11b-FITC (40 ug/mL) purchased from BioLegend (address: Cambridge Bioscience, Munro House, Trafalgar Way, Bar Hill, Cambridge, UK) and CD16-PE purchased from BD Pharmingen (address: The Danby Building, Edmung Halley Road, Oxford Science Park, Oxford, UK) (stock concentration 100 tests, 2 mL stock volume is diluted 1 in 5). The plate was placed on ice for 1 hour in the dark. The cells were then fixed using 200 uL/well of 1×FACS (Flow Activated Cell Sorting) Lyse solution (Becton and Dickinson-BD) and on ice for 20 minutes in the dark. The plate was centrifuged at 1600 rpm for 5 minutes and re-suspended with 200 uL of ice cold PBS. This step was repeated twice and on the final step the plate was re-suspended with 50 uL of ice cold -PBS for flow Cytometric analysis.
Samples were run on a Becton and Dickinson (BD)-Acurri C6 Flow Cytometer using a HyperCyt sampling apparatus (IntelliCyt) with a flow rate 2 uL/sec. CD11b upregulation is monitored in neutrophils and identified using a combination of both side scatter and CD16 expression.
On the technique in general: In flow cytometry, cells or beads pass a laser one at a time.

The target in another test is T1, recombinant human CXCR2 (Homo sapiens, UniProt P25025).
T1 construct: TEV protease site; Gal4-VP16 transcription factor
T1 sequence (P25025 1-360): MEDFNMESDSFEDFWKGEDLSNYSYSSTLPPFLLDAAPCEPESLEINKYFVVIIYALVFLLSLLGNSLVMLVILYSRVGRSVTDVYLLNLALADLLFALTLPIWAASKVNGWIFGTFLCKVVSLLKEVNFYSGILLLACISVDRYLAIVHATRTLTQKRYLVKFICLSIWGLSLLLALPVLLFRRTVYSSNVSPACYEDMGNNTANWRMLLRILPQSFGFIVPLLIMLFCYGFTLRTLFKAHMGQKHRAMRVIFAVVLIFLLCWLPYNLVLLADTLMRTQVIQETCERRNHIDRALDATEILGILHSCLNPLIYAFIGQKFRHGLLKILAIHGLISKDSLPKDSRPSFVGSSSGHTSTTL
The test is described as follows: CXCR2 Tango assay. The format is cell-based. Conditions: mean pIC50 of multiple test results; stimulated with 80 nM hCXCL1; reporter gene blue/green emission ratio; read-out: pIC50 (CXCR2 Tango assay) (converted). The gist of the method:
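A stable cell line carries human CXCR2 fused to a TEV site and Gal4-VP16, with protease-tagged arrestin. Cells (~10,000/well) were stimulated overnight at 37 °C with 80 nM hCXCL1 and a 10-point compound dilution. CCF4-AM beta-lactamase FRET (460/530 nm ratio) was read, normalized to hCXCL1 and DMSO, and mean pIC50 reported.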
On the technique in general: A reporter such as luciferase makes a cellular process visible.

Counter-ions that a name gives are not always drawn.

Consider `COC[C@@H](C)S(=O)(=O)c1c(Cl)ccc(NC(=O)N[C@@H]2CCC=C2C)c1O` [Compound 122, 1-(4-chloro-2-hydroxy-3-(((R)-1-methoxypropan-2-yl)sulfonyl)phenyl)-3-((R)-2-methylcyclopent-2-en-1-yl)urea], for which the IC50 was 25.1 to 2510 nM in test [1] and at most 1 nM on recombinant human CXCR2.

For the compound `CC1=CCC[C@H]1NC(=O)Nc1ccc(Cl)c(S(=O)(=O)C(C)(C)CF)c1O` [Compound 62, (R)-1-(4-chloro-3-((1-fluoro-2-methylpropan-2-yl)sulfonyl)-2-hydroxyphenyl)-3-(2-methylcyclopent-2-en-1-yl)urea], the results for the IC50 (in test [1]; on recombinant human CXCR2) were 25.1 to 2510 nM and at most 1 nM, respectively.

For `CC1=CCC[C@H]1NC(=O)Nc1ccc(Cl)c(S(=O)(=O)n2ccc3cccnc32)c1O` [Compound 90, (R)-1-(3-((1H-pyrrolo[2,3-b]pyridin-1-yl)sulfonyl)-4-chloro-2-hydroxyphenyl)-3-(2-methylcyclopent-2-en-1-yl)urea], the IC50 in test [1] was 25.1 to 2510 nM; on recombinant human CXCR2, at most 1 nM.

Turning to `CC1=CCC[C@H]1NC(=O)Nc1ccc(Cl)c(S(=O)(=O)C(C)(C)[C@H]2CCOC2)c1O` [Compound 56, 1-(4-chloro-2-hydroxy-3-((2-((S)-tetrahydrofuran-3-yl)propan-2-yl)sulfonyl)phenyl)-3-((R)-2-methylcyclopent-2-en-1-yl)urea], the results for the IC50 (in test [1]; at recombinant human CXCR2) were 25.1 to 2510 nM and at most 10 nM, respectively.

With `CC1=CCC[C@H]1NC(=O)Nc1ccc(C#N)c(S(=O)(=O)C(C)(C)C(F)(F)F)c1O` [Compound 31, (R)-1-(4-cyano-2-hydroxy-3-((1,1,1-trifluoro-2-methylpropan-2-yl)sulfonyl)phenyl)-3-(2-methylcyclopent-2-en-1-yl)urea], the IC50 in test [1] was 25.1 to 2510 nM; on recombinant human CXCR2, at most 1 nM.

Turning to `CCC1(S(=O)(=O)c2c(Cl)ccc(NC(=O)N[C@@H]3CCC=C3C)c2O)CCOCC1` [Compound 119, (R)-1-(4-chloro-3-((4-ethyltetrahydro-2H-pyran-4-yl)sulfonyl)-2-hydroxyphenyl)-3-(2-methylcyclopent-2-en-1-yl)urea], the figures for the IC50 (in test [1]; on recombinant human CXCR2) were 25.1 to 2510 nM and at most 1 nM, respectively.

Turning to `CC1(S(=O)(=O)c2c(Cl)ccc(NC(=O)N[C@H]3CCC=C3Cl)c2O)CCOCC1` [Compound 42, (S)-1-(4-chloro-2-hydroxy-3-((4-methyltetrahydro-2H-pyran-4-yl)sulfonyl)phenyl)-3-(2-chlorocyclopent-2-en-1-yl)urea], the IC50 in test [1] is 25.1 to 2510 nM.

With `COCC(C)(C)S(=O)(=O)c1c(Cl)ccc(NC(=O)NC2CCC=C2Cl)c1O` (centres unmarked) [Compound 157, 1-(4-chloro-2-hydroxy-3-((1-methoxy-2-methylpropan-2-yl)sulfonyl)phenyl)-3-(2-chlorocyclopent-2-en-1-yl)urea], the IC50 on recombinant human CXCR2 was at most 10 nM.

Regarding `CC1=CCC[C@H]1NC(=O)Nc1ccc(Cl)c(S(=O)(=O)C2CC3(COC3)C2)c1O` [Compound 77, (R)-1-(3-(2-oxaspiro[3.3]heptan-6-ylsulfonyl)-4-chloro-2-hydroxyphenyl)-3-(2-methylcyclopent-2-en-1-yl)urea], the IC50 at recombinant human CXCR2 is at most 1 nM.

As for `O=C(Nc1ccc(Cl)c(S(=O)(=O)C2CCOCC2)c1O)NC1C=CCC1` (centres unmarked) [Compound 176, 1-(4-chloro-2-hydroxy-3-((tetrahydro-2H-pyran-4-yl)sulfonyl)phenyl)-3-(cyclopent-2-en-1-yl)urea], at recombinant human CXCR2, the IC50 is at most 10 nM.

Take `CC1=CCC[C@H]1NC(=O)Nc1ccc(Cl)c(S(=O)(=O)C2(C)CCN(C3CCC3)CC2)c1O` [Compound 67, (R)-1-(4-chloro-3-((1-cyclobutyl-4-methylpiperidin-4-yl)sulfonyl)-2-hydroxyphenyl)-3-(2-methylcyclopent-2-en-1-yl)urea, trifluoroacetic acid salt]: the IC50 at recombinant human CXCR2 is at most 10 nM.

`CC(C)(CF)S(=O)(=O)c1c(Cl)ccc(NC(=O)NC2C=CCC2)c1O` (centres unmarked) [Compound 9, 1-(4-chloro-3-((1-fluoro-2-methylpropan-2-yl)sulfonyl)-2-hydroxyphenyl)-3-(cyclopent-2-en-1-yl)urea]: at recombinant human CXCR2, the IC50 is at most 10 nM.

Turning to `CC1=CCCC1NC(=O)Nc1ccc(Cl)c(S(=O)(=O)C(C)(C)c2ccccn2)c1O` (centres unmarked) [Compound 102, 1-(4-chloro-2-hydroxy-3-((2-(pyridin-2-yl)propan-2-yl)sulfonyl)phenyl)-3-(2-methylcyclopent-2-en-1-yl)urea, trifluoroacetic acid salt], the IC50 on recombinant human CXCR2 was at most 10 nM.

As for `CC1=CCCC1NC(=O)Nc1ccc(Cl)c(S(=O)(=O)C(C)(C)C(F)(F)F)c1O` (centres unmarked) [Compound 101, 1-(4-chloro-2-hydroxy-3-((1,1,1-trifluoro-2-methylpropan-2-yl)sulfonyl)phenyl)-3-(2-methylcyclopent-2-en-1-yl)urea], on recombinant human CXCR2, the IC50 is at most 1 nM.

As to `CO[C@H]1C[C@@H](S(=O)(=O)c2c(Cl)ccc(NC(=O)NC3CCC=C3Cl)c2O)C1` (stereo partly drawn) [Compound 149, 1-(4-chloro-2-hydroxy-3-((cis-3-methoxycyclobutyl)sulfonyl)phenyl)-3-(2-chlorocyclopent-2-en-1-yl)urea], at recombinant human CXCR2, the IC50 was at most 10 nM.

Consider `CC1=CCCC1NC(=O)Nc1ccc(Cl)c(S(=O)(=O)[C@H]2CCOC2)c1O` (stereo partly drawn) [Compound 99, 1-(4-chloro-2-hydroxy-3-(((S)-tetrahydrofuran-3-yl)sulfonyl)phenyl)-3-(2-methylcyclopent-2-en-1-yl)urea], for which the IC50 on recombinant human CXCR2 is at most 10 nM.

For the compound `CC1=CCC[C@H]1NC(=O)Nc1ccc(Cl)c(S(=O)(=O)[C@H]2C[C@H](F)C2)c1O` [Compound 50, 1-(4-chloro-3-((trans-3-fluorocyclobutyl)sulfonyl)-2-hydroxyphenyl)-3-((R)-2-methylcyclopent-2-en-1-yl)urea], at recombinant human CXCR2, the IC50 was at most 1 nM.

As for `CC1=CCCC1NC(=O)Nc1ccc(Cl)c(S(=O)(=O)[C@H]2CC[C@@H](N(C)C)CC2)c1O` (some centres unmarked) [Compound 129, 1-(4-chloro-3-(((1s,4s)-4-(dimethylamino)cyclohexyl)sulfonyl)-2-hydroxyphenyl)-3-(2-methylcyclopent-2-en-1-yl)urea, trifluoroacetic acid salt], the IC50 on recombinant human CXCR2 is at most 1 nM.

Take `O=C(Nc1ccc(Cl)c(S(=O)(=O)[C@H]2C[C@H](N3CCCC3)C2)c1O)NC1C=CCC1` (stereo partly drawn) [Compound 174, 1-(4-chloro-2-hydroxy-3-((trans-3-(pyrrolidin-1-yl)cyclobutyl)sul-fonyl)phenyl)-3-(cyclopent-2-en-1-yl)urea]: the IC50 at recombinant human CXCR2 was at most 10 nM.

`CO[C@@H]1CC[C@@H](S(=O)(=O)c2c(Cl)ccc(NC(=O)N[C@@H]3CCC=C3C)c2O)C1` (stereo in doubt) [Compound 143, trans-1-(4-chloro-2-hydroxy-3-((3-methoxycyclopent-yl)sulfonyl)phenyl)-3-((R)-2-methylcyclopent-2-en-1-yl)urea]: the IC50 on recombinant human CXCR2 was at most 1 nM.

With `CC(c1ccccn1)S(=O)(=O)c1c(Cl)ccc(NC(=O)NC2CCC=C2Cl)c1O` (centres unmarked) [Compound 26, 1-(4-chloro-2-hydroxy-3-((1-(pyridin-2-yl)ethyl)sulfonyl)phenyl)-3-(2-chlorocyclopent-2-en-1-yl)urea], the IC50 at recombinant human CXCR2 was at most 10 nM.

For `O=C(Nc1ccc(Cl)c(S(=O)(=O)[C@H]2C[C@@H](O)C2)c1O)NC1C=CCC1` (stereo partly drawn) [Compound 164, 1-(4-chloro-2-hydroxy-3-((cis-3-hydroxycyclobutyl)sulfonyl)phenyl)-3-(cyclopent-2-en-1-yl)urea], the IC50 at recombinant human CXCR2 was at most 10 nM.

With `CC1=CCC[C@H]1NC(=O)Nc1ccc(Cl)c(S(=O)(=O)C2(F)CCOC2)c1O` (stereo partly drawn) [Compound 74, 1-(4-chloro-3-((3-fluorotetrahydro-furan-3-yl)sulfonyl)-2-hydroxyphenyl)-3-((R)-2-methylcyclopent-2-en-1-yl)urea], on recombinant human CXCR2, the IC50 was at most 1 nM.
